Measurements published in ChEMBL document CHEMBL2146442, “High-affinity and selective dopamine D₃ receptor full agonists” (Bioorg Med Chem Lett, 2012).
pEC50, pKi: −log10 of the molar value.

Assays:
[1] = Selectivity ratio of dopamine D2 receptor to dopamine D3 receptor
[2] = Selectivity ratio of dopamine D1 like receptor to dopamine D3 receptor
Rattus norvegicus = species on record: Rattus norvegicus; assay: Selectivity ratio of Ki for dopamine D1 like receptor in rat brain homogenates to Ki for dopamine D3 receptor in rat brain homogenates; format: tissue-based
[3] = Displacement of [3H]SCH23390 from dopamine D1 like receptor in rat brain homogenates; format: tissue-based
[4] = Displacement of [3H]Spiperone from dopamine D2 like receptor in rat brain homogenates; format: tissue-based
D(3) dopamine receptor [5] = biological target: D(3) dopamine receptor (Rattus norvegicus, UniProt P19020); assay: Displacement of [3H]-R(+)-7-OHDPAT from dopamine D3 receptor in rat brain homogenates; format: tissue-based
Chain of D(3) dopamine receptor (Rattus norvegicus, UniProt P19020) (P19020 whole entry): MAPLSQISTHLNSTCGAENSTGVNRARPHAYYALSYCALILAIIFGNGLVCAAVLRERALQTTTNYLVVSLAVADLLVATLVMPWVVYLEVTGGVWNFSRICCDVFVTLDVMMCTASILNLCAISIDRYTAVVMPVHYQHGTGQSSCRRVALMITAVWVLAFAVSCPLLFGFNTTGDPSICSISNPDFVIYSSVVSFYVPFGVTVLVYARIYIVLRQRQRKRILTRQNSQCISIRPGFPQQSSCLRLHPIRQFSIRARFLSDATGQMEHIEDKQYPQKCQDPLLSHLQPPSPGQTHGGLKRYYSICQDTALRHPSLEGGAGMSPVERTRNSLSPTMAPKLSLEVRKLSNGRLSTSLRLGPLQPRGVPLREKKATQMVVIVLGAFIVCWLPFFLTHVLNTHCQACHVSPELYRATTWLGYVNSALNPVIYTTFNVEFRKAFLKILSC

D(3) dopamine receptor [6] = biological target: D(3) dopamine receptor (Homo sapiens, UniProt P35462); assay: Agonist activity at human dopamine D3 receptor expressed in CHO cells by mitogenesis assay; format: functional, cell-based
Chain of D(3) dopamine receptor (Homo sapiens, UniProt P35462) (P35462 whole entry): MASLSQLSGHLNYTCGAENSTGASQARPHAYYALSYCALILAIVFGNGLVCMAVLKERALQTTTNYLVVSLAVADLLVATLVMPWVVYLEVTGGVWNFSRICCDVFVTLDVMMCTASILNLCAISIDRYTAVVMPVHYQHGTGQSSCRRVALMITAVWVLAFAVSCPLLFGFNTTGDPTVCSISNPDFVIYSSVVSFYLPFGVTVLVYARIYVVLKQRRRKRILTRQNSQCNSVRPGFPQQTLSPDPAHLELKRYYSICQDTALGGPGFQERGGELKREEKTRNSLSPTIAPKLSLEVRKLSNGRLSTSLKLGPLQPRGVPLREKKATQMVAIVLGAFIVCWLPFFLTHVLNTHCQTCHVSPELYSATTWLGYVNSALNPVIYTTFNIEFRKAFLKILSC

| Compound | Selectivity ratio [1] | Selectivity ratio [2] | Ratio Ki (Rattus norvegicus) | pKi [3] | pKi [4] | pKi (D(3) dopamine receptor [5]) | pEC50 (D(3) dopamine receptor [6]) |
| --- | --- | --- | --- | --- | --- | --- | --- |
| O=C(NCCCCN1CCN(c2cccc(Cl)c2Cl)CC1)c1ccc2c(c1)Cc1ccccc1-2 | 100 | > 1000 |  |  |  |  |  |
| CCCN(CC[C@H]1CC[C@H](NS(=O)(=O)c2ccc3ccccc3c2)CC1)[C@H]1CCc2nc(N)sc2C1 |  |  | 2430 | 5.43 | 7.85 | 8.82 |  |
| CCCN(CC[C@H]1CC[C@H](NS(=O)(=O)c2ccc(Cl)nc2)CC1)[C@H]1CCc2nc(N)sc2C1 |  |  | 12900 | 5.09 | 7.55 | 9.20 |  |
| CCCN(CC[C@H]1CC[C@H](NC(=O)/C=C/c2cccc(OC)c2)CC1)[C@H]1CCc2nc(N)sc2C1 |  |  | 953 | 5.05 | 6.91 | 8.03 |  |
| CCCN(CC[C@H]1CC[C@H](NS(=O)(=O)c2cccnc2Cl)CC1)[C@H]1CCc2nc(N)sc2C1 |  |  | 46300 | 4.76 | 6.77 | 9.42 | 8.82 |
| CCCN(CC[C@H]1CC[C@H](NS(=O)(=O)c2cccc(F)c2)CC1)[C@H]1CCc2nc(N)sc2C1 |  |  |  | 4.98 |  | 9.14 |  |
| CCCN(CC[C@H]1CC[C@H](NS(=O)(=O)c2cnccc2Cl)CC1)[C@H]1CCc2nc(N)sc2C1 |  |  |  | 4.97 |  | 9.03 |  |
| CCCN(CC[C@H]1CC[C@H](NS(=O)(=O)c2cccc3ccccc23)CC1)[C@H]1CCc2nc(N)sc2C1 |  |  | 3160 | 5.33 | 7.51 | 8.82 |  |
| CCCN(CCN1CCN(c2ccc(-c3ccccc3)cc2)CC1)[C@H]1CCc2nc(N)sc2C1 | 100 | > 1000 |  |  |  |  |  |
| CCCN(CC[C@H]1CC[C@H](NC(=O)/C=C/c2ccccc2Cl)CC1)[C@H]1CCc2nc(N)sc2C1 |  |  | 4650 | 5.26 | 7.52 | 8.92 |  |
| COc1ccccc1N1CCN(CC(O)CCNC(=O)c2cc3ccccc3[nH]2)CC1 (stereo unspecified) | 100 | > 1000 |  |  |  |  |  |
| CCCN(CC[C@H]1CC[C@H](NS(=O)(=O)c2ccc(C(C)C)cc2)CC1)[C@H]1CCc2nc(N)sc2C1 |  |  | 1810 | 5.09 | 6.88 | 8.35 |  |
| O=C(NCC[C@@H](O)CN1CCN(c2cccc(Cl)c2Cl)CC1)c1cc2ccccc2[nH]1 | 100 | > 1000 |  |  |  |  |  |
| CCCN(CC[C@H]1CC[C@H](NS(=O)(=O)c2cccc(C)c2)CC1)[C@H]1CCc2nc(N)sc2C1 |  |  | 9470 | 5.08 | 7.21 | 9.05 |  |
| CCCN(CC[C@H]1CC[C@H](NS(=O)(=O)c2ccc(C(C)(C)C)cc2)CC1)[C@H]1CCc2nc(N)sc2C1 |  |  | 626 | 5.50 | 7.00 | 8.30 |  |
| CCCN(CC[C@H]1CC[C@H](NS(=O)(=O)c2ccc(Cl)cc2)CC1)[C@H]1CCc2nc(N)sc2C1 |  |  | 8750 | 5.08 | 7.15 | 9.02 |  |
| CCCN(CC[C@H]1CC[C@H](NS(=O)(=O)c2ccccc2)CC1)[C@H]1CCc2nc(N)sc2C1 |  |  | 29700 | 4.63 | 7.24 | 9.10 |  |
| CCCN(CC[C@H]1CC[C@H](NS(=O)(=O)c2ccccc2Cl)CC1)[C@H]1CCc2nc(N)sc2C1 |  |  |  | 5.02 |  | 9.17 |  |
| CCCN(CC[C@H]1CC[C@H](NS(=O)(=O)c2ccc(-c3ccccc3)cc2)CC1)[C@H]1CCc2nc(N)sc2C1 |  |  | 44 | 5.74 | 7.12 | 7.39 |  |
| CCCN(CC[C@H]1CC[C@H](NS(=O)(=O)c2cccc(Cl)c2)CC1)[C@H]1CCc2nc(N)sc2C1 |  |  |  | 5.26 |  | 8.96 |  |
| CCCN(CC[C@H]1CC[C@H](NC(=O)/C=C/c2cccc(Cl)c2)CC1)[C@H]1CCc2nc(N)sc2C1 |  |  | 4640 | 5.24 | 7.28 | 8.92 |  |
| CCCN(CC[C@H]1CC[C@H](NC(=O)/C=C/c2ccccc2F)CC1)[C@H]1CCc2nc(N)sc2C1 |  |  | 3510 | 5.00 | 7.04 | 8.54 |  |
| O=C(NC/C=C/CN1CCN(c2cccc(Cl)c2Cl)CC1)c1ccc(-c2ccccn2)cc1 | 100 | > 1000 |  |  |  |  |  |
| CCCN[C@H]1CCc2nc(N)sc2C1 [PRAMIPEXOLE] |  |  |  | < 4.00 |  |  |  |

Now from value to compound:

| Selectivity ratio [1] | Selectivity ratio [2] | Ratio Ki (Rattus norvegicus) | pKi [3] | pKi [4] | pKi (D(3) dopamine receptor [5]) | pEC50 (D(3) dopamine receptor [6]) | Compound |
| --- | --- | --- | --- | --- | --- | --- | --- |
|  |  | 1600 | 5.39 | 7.57 | 8.60 |  | CCCN(CC[C@H]1CC[C@H](NC(=O)/C=C/c2ccc(Cl)cc2)CC1)[C@H]1CCc2nc(N)sc2C1 |
|  |  | 4670 | 5.33 | 7.18 | 9.00 |  | CCCN(CC[C@H]1CC[C@H](NC(=O)/C=C/c2ccc(F)cc2)CC1)[C@H]1CCc2nc(N)sc2C1 |
|  |  | 4500 | 4.58 | 7.19 | 8.23 |  | CCCN(CC[C@H]1CC[C@H](NC(=O)c2cccc3cnccc23)CC1)[C@H]1CCc2nc(N)sc2C1 |
|  |  | 27000 | 4.46 | 6.35 | 8.89 |  | CCCN(CC[C@H]1CC[C@H](NC(=O)c2ccc(-c3noc(C)n3)cc2)CC1)[C@H]1CCc2nc(N)sc2C1 |
|  |  | 3450 | 5.30 | 6.31 | 8.82 |  | CCCN(CC[C@H]1CC[C@H](NC(=O)c2cccc(-c3noc(CC)n3)c2)CC1)[C@H]1CCc2nc(N)sc2C1 |
|  |  | 23800 | 4.33 | 7.35 | 8.70 |  | CCCN(CC[C@H]1CC[C@H](NC(=O)c2ccccc2-n2cccn2)CC1)[C@H]1CCc2nc(N)sc2C1 |
|  |  | 5370 | 4.96 | 6.33 | 8.70 |  | CCCN(CC[C@H]1CC[C@H](NC(=O)c2ccc(-c3noc(C(C)C)n3)cc2)CC1)[C@H]1CCc2nc(N)sc2C1 |
|  |  | 6050 | 4.95 | 7.06 | 8.80 |  | CCCN(CC[C@H]1CC[C@H](NC(=O)c2ccc3ccccc3n2)CC1)[C@H]1CCc2nc(N)sc2C1 |
|  |  | 4870 | 4.84 | 7.28 | 8.52 |  | CCCN(CC[C@H]1CC[C@H](NC(=O)c2ccc(-n3cccn3)cc2)CC1)[C@H]1CCc2nc(N)sc2C1 |
|  |  | 13700 | 5.00 | 6.44 | 9.14 | 8.37 | CCCN(CC[C@H]1CC[C@H](NC(=O)c2cccc(-c3noc(C)n3)c2)CC1)[C@H]1CCc2nc(N)sc2C1 |
|  |  | 19900 | 4.43 | 7.64 | 8.72 |  | CCCN(CC[C@H]1CC[C@H](NC(=O)c2ccc(-n3ccnc3)cc2)CC1)[C@H]1CCc2nc(N)sc2C1 |
|  |  | 3240 | 4.94 | 6.20 | 8.46 |  | CCCN(CC[C@H]1CC[C@H](NC(=O)c2ccc(-c3noc(C4CC4)n3)cc2)CC1)[C@H]1CCc2nc(N)sc2C1 |
|  |  | 27500 | 4.67 | 7.42 | 9.11 |  | CCCN(CC[C@H]1CC[C@H](NS(=O)(=O)c2ccc(OC)cc2)CC1)[C@H]1CCc2nc(N)sc2C1 |
|  |  | 5960 | 4.85 | 7.25 | 8.62 |  | CCCN(CC[C@H]1CC[C@H](NC(=O)c2ccc(-n3cncn3)cc2)CC1)[C@H]1CCc2nc(N)sc2C1 |
|  |  | 27100 | 4.36 | 7.14 | 8.80 |  | CCCN(CC[C@H]1CC[C@H](NC(=O)c2cccc3ncccc23)CC1)[C@H]1CCc2nc(N)sc2C1 |
|  |  | 19900 | 4.22 | 7.37 | 8.52 |  | CCCN(CC[C@H]1CC[C@H](NC(=O)c2cccc(-n3cncn3)c2)CC1)[C@H]1CCc2nc(N)sc2C1 |
|  |  | 21800 | 4.61 | 7.49 | 8.96 |  | CCCN(CC[C@H]1CC[C@H](NC(=O)c2cccc(-n3ccnc3)c2)CC1)[C@H]1CCc2nc(N)sc2C1 |
|  |  | 8380 | 4.75 | 6.48 | 8.68 |  | CCCN(CC[C@H]1CC[C@H](NC(=O)c2ccc(-c3noc(CC)n3)cc2)CC1)[C@H]1CCc2nc(N)sc2C1 |
|  |  | 1200 | 5.10 | 7.03 | 8.17 |  | CCCN(CC[C@H]1CC[C@H](NC(=O)/C=C/c2ccc(OC)cc2)CC1)[C@H]1CCc2nc(N)sc2C1 |
|  |  | 666 | 5.18 | 7.10 | 8.00 |  | CCCN(CC[C@H]1CC[C@H](NC(=O)/C=C/c2cccc(F)c2)CC1)[C@H]1CCc2nc(N)sc2C1 |
|  |  | 983 | 5.10 | 6.99 | 8.09 |  | CCCN(CC[C@H]1CC[C@H](NC(=O)/C=C/c2ccccc2OC)CC1)[C@H]1CCc2nc(N)sc2C1 |
